Test [1] deals with CCRF-CEM. The experiment in a line: NCI antitumor screen (SRB). The format is cell-based. The following applies: Homo sapiens; for inhibition at 10 µM: one dose 10 µM, read-out: Growth inhibition percentage (GI%).
In test [2] the test system is HL-60(TB). The experiment in a line: cells. The conditions noted are these: for inhibition at 10 µM: HL-60, HL-60(TB), read-out: Growth inhibition percentage (GI%). It counts as cell-based, human.
Test [3] deals with MOLT-4. Kind of test: NCI antitumor screen (SRB). The following applies: Homo sapiens; for inhibition at 10 µM: one dose 10 µM, read-out: Growth inhibition percentage (GI%). The format is cell-based.
For test [4], the system named is EKVX. Kind of test: NCI antitumor screen (SRB). It counts as cell-based. The conditions noted are these: Homo sapiens; for inhibition at 10 µM: one dose 10 µM, read-out: Growth inhibition percentage (GI%).
In test [5] the test system is NCI-H322M. Kind of test: NCI antitumor screen (SRB). The format is cell-based. The conditions noted are these: Homo sapiens; for inhibition at 10 µM: read-out: Growth inhibition percentage (GI%).
The test system of test [6] is NCI-H522. Kind of test: NCI antitumor screen (SRB). The conditions noted are these: Homo sapiens. The format is cell-based.
Test [7] concerns COLO 205. Kind of test: NCI antitumor screen (SRB). It counts as cell-based. The conditions noted are these: Homo sapiens; for inhibition at 10 µM: one dose 10 µM, read-out: Growth inhibition percentage (GI%).
The test system of test [8] is KM12. Kind of test: NCI antitumor screen (SRB). The format is cell-based. The conditions noted are these: Homo sapiens; for inhibition at 10 µM: one dose 10 µM, read-out: Growth inhibition percentage (GI%).
Test [9] has as its system SF-295. Kind of test: NCI antitumor screen (SRB). The following applies: Homo sapiens; for inhibition at 10 µM: one dose 10 µM, read-out: Growth inhibition percentage (GI%). The format is cell-based.
The subject of test [10] is U251. Kind of test: NCI antitumor screen (SRB). The format is cell-based. The following applies: Homo sapiens; for inhibition at 10 µM: U-251, one dose 10 µM, read-out: Growth inhibition percentage (GI%).
In test [11] the test system is MALME-3M. The experiment in a line: NCI antitumor screen (SRB). The conditions noted are these: Homo sapiens; for inhibition at 10 µM: one dose 10 µM, read-out: Growth inhibition percentage (GI%). It counts as cell-based.
In test [12] the test system is A498. Kind of test: NCI antitumor screen (SRB). The format is cell-based. The conditions noted are these: Homo sapiens; for inhibition at 10 µM: one dose 10 µM, read-out: Growth inhibition percentage (GI%).
Test [13] has as its system T-47D. Kind of test: NCI antitumor screen (SRB). The format is cell-based. The conditions noted are these: Homo sapiens, T47D; for inhibition at 10 µM: one dose 10 µM, read-out: Growth inhibition percentage (GI%).
In test [14] the test system is HL60 cells. The experiment in a line: Annexin V-FITC/PI apoptosis assay. It counts as cell-based, human. The conditions noted are these: HL60, 10 µM, 24 h. On the procedure: Apoptosis induction is the most important mechanism by which major chemotherapeutics kill cancer cells. Apoptosis causes cellular changes whereby the translocation of phosphatidylserine (PS) occurs through the plasma membrane from the inside to the outside. Annexin-V can bind to PS, which can be used as a sensitive probe for PS on the outer side of the plasma membrane. […] The AV/PI staining of HL60 cells was performed at a mixed molar concentration of 10 µM with compounds 6, 9, 16, and 20 for 24 h. Figure 4 and Table 5 show the results of treating HL60 cells with compounds 6, 9, 16, and 20 for 24 h.
According to our previous report, apoptosis induction was performed using the Leukaemia HL-60 cell line and well-established Annexin 5-FITC/PI detection kit. The cell line samples were analysed using FACSCalibur flow cytometer[40]^,[72]. […]
[(Ti-Tz)/Tz)] x 100 for concentration of which Ti ≤ Tz.
The induction of apoptosis was performed according to our previous report using Leukemia HL-
60 cell line and well-established Annexin 5-FITC/PI detection kit. The cell line samples were
analyzed using a FACSCalibur flow cytometer. […]

Test [15] concerns the target EGFR (Homo sapiens, UniProt P00533). Kind of test: biochemical. The following applies: read-out: IC50 EGFR Inhibition. The source says:
(§1) In vitro luminescent EGFR tyrosine kinase assay using Kinase-Glo® MAX as a detection reagent, and In vitro HER2 tyrosine kinase assay using DP‐Glo™ reagent that measures ADP formed from a kinase reaction, this luminescent signal positively correlates with ADP amount and kinase activity. […]
(§2) 2.1.5. EGFR and Her2 assays
(§3) In vitro luminescent EGFR tyrosine kinase assay, using Kinase-Glo® MAX as a detection reagent, and In vitro HER2 tyrosine kinase assay, using DP‐Glo™ reagent that measures the adenosine diphosphate (ADP) formed from a kinase reaction, were performed; this luminescent signal positively correlates with ADP amount and kinase activity. In 17 μl of distilled water, 6 μl of Kinase assay buffer and 1 μl ATP and 1 μl PTK substrate were mixed (master mixture). In every well, mix 20 μl of the master mixture and 5 μl of Inhibitor solution (Test Inhibitor) for positive control, and use 5 μl of the same solution without inhibitor (Inhibitor buffer) as the blank solution; add 20 μl of diluted EGFR or Her2 enzyme and incubate at 30°C for 40 min. Add 50 μl of Kinase-Glo Max reagent to each well, cover the plate with aluminum foil and incubate the plate at room temperature for 15 min. Afterward, measure luminescence using the microplate reader. “Blank” value is subtracted from all readings. […]

Test [16] deals with HER2 (Homo sapiens, UniProt P04626). The experiment in a line: biochemical. The conditions noted are these: read-out: IC50 HER2 Inhibition.
HER2, sequence (P04626 23-1255): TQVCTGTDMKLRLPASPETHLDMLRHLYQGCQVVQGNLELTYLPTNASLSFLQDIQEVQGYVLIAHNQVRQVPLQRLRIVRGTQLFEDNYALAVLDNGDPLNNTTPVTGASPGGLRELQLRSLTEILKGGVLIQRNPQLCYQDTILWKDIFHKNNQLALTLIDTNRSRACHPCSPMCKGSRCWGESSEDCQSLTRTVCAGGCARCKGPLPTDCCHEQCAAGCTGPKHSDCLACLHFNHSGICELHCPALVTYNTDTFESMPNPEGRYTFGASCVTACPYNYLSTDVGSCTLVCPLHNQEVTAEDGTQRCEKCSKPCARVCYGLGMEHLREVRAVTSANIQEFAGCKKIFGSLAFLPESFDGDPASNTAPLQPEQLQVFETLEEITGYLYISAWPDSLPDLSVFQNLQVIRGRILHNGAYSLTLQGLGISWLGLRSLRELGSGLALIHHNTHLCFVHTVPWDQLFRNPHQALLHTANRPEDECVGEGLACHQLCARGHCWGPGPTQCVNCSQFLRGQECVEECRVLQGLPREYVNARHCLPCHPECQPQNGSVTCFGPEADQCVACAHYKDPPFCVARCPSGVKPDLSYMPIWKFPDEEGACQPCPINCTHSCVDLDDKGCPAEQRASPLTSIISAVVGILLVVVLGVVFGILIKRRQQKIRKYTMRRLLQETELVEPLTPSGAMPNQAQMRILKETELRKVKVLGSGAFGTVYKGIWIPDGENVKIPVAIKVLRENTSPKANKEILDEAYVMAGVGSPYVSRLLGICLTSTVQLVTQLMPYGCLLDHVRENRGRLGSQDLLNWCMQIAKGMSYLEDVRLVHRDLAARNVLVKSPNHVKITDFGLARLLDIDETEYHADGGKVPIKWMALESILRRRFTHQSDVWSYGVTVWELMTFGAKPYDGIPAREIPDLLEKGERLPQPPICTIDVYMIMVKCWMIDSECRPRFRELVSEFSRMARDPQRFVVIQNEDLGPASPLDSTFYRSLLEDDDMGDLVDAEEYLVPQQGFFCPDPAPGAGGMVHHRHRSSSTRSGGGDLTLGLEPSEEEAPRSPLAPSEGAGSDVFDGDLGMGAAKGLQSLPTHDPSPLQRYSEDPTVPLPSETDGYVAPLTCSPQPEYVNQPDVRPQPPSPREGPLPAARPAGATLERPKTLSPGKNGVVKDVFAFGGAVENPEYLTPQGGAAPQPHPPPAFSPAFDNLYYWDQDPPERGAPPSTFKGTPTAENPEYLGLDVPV
Source text: as §1, §2, §3

Where [17] appears, read: NCI-H522, read-out: Growth inhibition percentage (GI%).
Setting [18] is: five concentrations 0.01-100 µM.

SMILES strings stand for the structures. Read-outs that look alike come from different tables or passages of the source.

EGFR, sequence (P00533 25-1210): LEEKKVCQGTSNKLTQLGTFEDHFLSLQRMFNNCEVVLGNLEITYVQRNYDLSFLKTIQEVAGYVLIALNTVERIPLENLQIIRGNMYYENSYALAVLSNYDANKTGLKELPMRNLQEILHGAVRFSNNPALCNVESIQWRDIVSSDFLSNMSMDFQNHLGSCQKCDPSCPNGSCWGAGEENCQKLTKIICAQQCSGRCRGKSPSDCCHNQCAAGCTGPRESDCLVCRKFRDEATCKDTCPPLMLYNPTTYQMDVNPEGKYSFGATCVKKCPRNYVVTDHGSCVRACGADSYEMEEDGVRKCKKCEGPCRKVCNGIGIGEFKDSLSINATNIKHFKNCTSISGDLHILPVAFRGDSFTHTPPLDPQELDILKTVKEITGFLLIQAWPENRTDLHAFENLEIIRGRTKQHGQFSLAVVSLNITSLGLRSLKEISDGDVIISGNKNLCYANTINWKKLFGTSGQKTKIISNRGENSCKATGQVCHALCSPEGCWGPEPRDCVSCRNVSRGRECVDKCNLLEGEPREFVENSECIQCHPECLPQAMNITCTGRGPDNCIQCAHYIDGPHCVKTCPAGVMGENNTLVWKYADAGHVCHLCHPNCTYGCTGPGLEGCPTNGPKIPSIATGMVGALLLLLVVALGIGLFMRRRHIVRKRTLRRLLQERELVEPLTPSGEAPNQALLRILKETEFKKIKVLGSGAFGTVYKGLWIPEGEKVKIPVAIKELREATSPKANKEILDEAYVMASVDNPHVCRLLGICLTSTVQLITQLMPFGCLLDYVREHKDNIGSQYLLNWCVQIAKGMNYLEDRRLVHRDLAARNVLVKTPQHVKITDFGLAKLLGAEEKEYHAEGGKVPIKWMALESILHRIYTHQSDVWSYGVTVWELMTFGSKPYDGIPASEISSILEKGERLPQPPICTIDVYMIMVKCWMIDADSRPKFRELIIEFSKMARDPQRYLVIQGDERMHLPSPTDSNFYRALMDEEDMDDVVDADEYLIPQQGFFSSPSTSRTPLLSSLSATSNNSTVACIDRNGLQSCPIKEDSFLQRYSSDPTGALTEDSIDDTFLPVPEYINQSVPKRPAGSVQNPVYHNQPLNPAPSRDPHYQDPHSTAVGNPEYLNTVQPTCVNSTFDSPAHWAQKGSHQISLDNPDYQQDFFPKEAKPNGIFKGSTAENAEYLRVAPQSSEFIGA

Regarding `Cc1ccc(C=NNC(=O)c2ccc(S(C)(=O)=O)cc2)cc1` [Compound 9, N'-(4-Methylbenzylidene)-4-(methylsulfonyl)benzohydrazide], the inhibition (usually the change of the read-out against control, counted positive when it falls) at 10 µM in test [1] was 20.8%; in test [2] (Homo sapiens, one dose 10 µM) it was 24.3%; in test [3], 22.6%; in test [4], below 10%; in test [5] (one dose 10 µM) it was below 10%; in test [6] (setting [17]) it was 53.9%. In addition, the inhibition at 10 µM in test [7] was below 10%; in [8], 25.1%; in test [9] it was below 10%; in test [10], 13.7%; in [11], 15.2%; in [12] it was 17.9%. In addition, the inhibition at 10 µM in test [13] was below 10%. Moreover, in [14], the “Apoptosis, early” value amounted to 5.66%. The “Apoptosis, late” value in test [14] is on record as 9.04%. Moreover, in [14], the “Apoptosis, total (annexin V-FITC positive cells)” value (shortened to “Apoptosis, total”) is listed as 16.89%. Also, the Necrosis in [14] is 2.19%. Further, the IC50 (commonly the concentration that inhibits the measured activity by half) in test [15] came out at 770 ± 30 nM; in test [16], 410 ± 10 nM.
As to `CS(=O)(=O)c1ccc(C(=O)N/N=C/c2ccccc2O)cc1` [Compound 16], the inhibition at 10 µM came out at 84.7% in test [1]; 93.7% in test [2] (Homo sapiens, one dose 10 µM); 90.8% in [3]; 74.2% in test [4]; 61.6% in test [5]; 84.9% in [6] (setting [17]). The inhibition at 10 µM in [7] was 68.8%; in test [8] it was 65.9%; in [9] it was 62%; in test [10], 72.2%; in [11], 36.5%; in [12], 24.8%. The inhibition at 10 µM in test [13] was 47.6%. For the same compound, the “Apoptosis, early” value in [14] is 7.34%. Further, in test [14], the “Apoptosis, late” value is recorded as 13.41%. In test [14], the “Apoptosis, total” value is 22.41%. The same compound yielded a Necrosis in [14] of 1.66%. Further, the IC50 in test [15] stood at 200 ± 70 nM; in test [16] it was 130 ± 40 nM.
For `CCN(CC)c1ccc(/C=N/NC(=O)c2ccc(S(C)(=O)=O)cc2)c(O)c1` [Compound 20], the GI50 (in general, the concentration at which growth is held to half of that of the control) worked out at 78 nM in test [1] (setting [18]); 164 nM in test [2] (Homo sapiens, HL-60(TB), five concentrations 0.01-100 µM); 164 nM in test [3] (setting [18]); 162 nM in [4] (setting [18]); 228 nM in [5] (setting [18]); 395 nM in test [6] (NCI-H522, five concentrations 0.01-100 µM). In addition, the GI50 in test [7] (setting [18]) stood at 269 nM; in [8] (setting [18]) it was 404 nM; in [9] (setting [18]), 200 nM; in test [10] (U-251, five concentrations 0.01-100 µM), 137 nM; in [11] (setting [18]) it was 440 nM; in test [12] (setting [18]), 9810 nM. For the same compound, in [13] (setting [18]), halving of growth (GI50) required 390 nM. Also, the inhibition at 10 µM in test [1] turned out to be 93.1%; in test [2] (Homo sapiens, one dose 10 µM), 100%; in test [3] it was 97.3%; in test [4], 84.5%; in test [5] (one dose 10 µM), 75%; in test [6] (NCI-H522, one dose 10 µM, read-out: Growth inhibition percentage (GI%)) it was 90.1%. In addition, the inhibition at 10 µM came to 91.4% in test [7]; 74.1% in [8]; 78.6% in [9]; 79.4% in test [10]; 86% in [11]; 54.7% in test [12]. For the same compound, in [13], the inhibition at 10 µM was found to be 70%. Moreover, the “Growth inhibition percentage (GI%)” value in [2] (HL-60(TB), one dose 10 µM) was above 100%. Also, in test [14], the “Apoptosis, early” value was determined as 8.42%. Further, the “Apoptosis, late” value in test [14] was 12.66%. Moreover, in [14], the “Apoptosis, total” value is on record as 24.31%. The Necrosis in test [14] is listed as 3.23%. In addition, the values for the IC50 in [15] and in test [16] were 190 ± 10 nM and 70 ± 20 nM, respectively.
